Data from patent US20190216751A1, “Compositions and Methods for the Treatment and Prevention of Cancer” (California State University Northridge, priority 2017, published 2019).

Tested on: ZEB1 expression in MCF10CA1a cells
Assay: qPCR ZEB1 mRNA, TGFβ-induced EMT
Format: cell-based, human
Conditions: GC7 10 μM pre-treatment, TGFβ 2.5 ng/mL 48 hours, fibronectin
Excerpt: The pathway in which the inventors are interested in targeting eIF5A is in the context of TGFβ-induced EMT and TGFβ is a well-characterized inducer of EMT. […] Phase-contrast images are shown to the right of the western blot to indicate a shift in morphology after treatment with TGFβ. […] Since TGFβ can induce PEAK1 upregulation, while in contrast, hypusinated eIF5A promotes PEAK1 translation, the inventors sought to see if TGFβ alone can upregulate hypusinated eIF5A. Post-translational modifications can occur relatively fast. Therefore short-term treatments of TGFβ on 4T1, 67NR and MCF10CA1a cells were performed initially. Protein lysates were collected after 10, 30 and 120 minutes of treatment and immunoblotted for hypusine, total eIF5A and β-actin (FIG. 4B). […] Relative band intensity is graphed to the right of the western blot in which the ratio between hypusine to total eIF5A is compared first between treated samples to control samples then a ratio is calculated comparing each time point relative to 10 minutes as a starting time point of reference. […] The inventors were also interested in what genes were altered at the transcriptional level when dual treating with TGFβ and GC7 at the same time to block EMT. […]

N=C(N)NCCCCCCCN.O=S(=O)(O)O [GC7, N1-Guanyl-1,7-diaminoheptane]
TGFβ-induced EMT (ZEB1 mRNA): this EMT was blocked
